Test results from patent US20250312497A1, “METHOD OF TREATING PROSTATE CANCER” (Novartis AG, priority 2022, published 2025).
Values joined by “and” are separate entries in the source; they are usually repeats but may differ in a detail not shown here. Identical values can stand only once. Like-named read-outs stand apart in the source and are kept apart here.

Experiments:
[1] = system: PSMA-positive mCRPC participants; experiment: PSMAfore phase III: patient disposition, treatment discontinuation; format: in vivo, human
Excerpt: Patient disposition (Full analysis set)

mCRPC participants = details: cited from earlier work
[2] = system: castrate-resistant metastatic prostate cancer; details: cited from earlier work
[3] = system: PSMA-positive metastatic castration-resistant prostate cancer (mCRPC); experiment: PSMAfore phase III: best overall radiological response (soft tissue and bone) by BICR; format: in vivo, human; details: results update
Method: Best overall radiological response accounting for soft tissue and bone disease based on BICR (Recist analysis set—participants with measurable disease at baseline)
Responses are based on soft tissue assessment and bone lesion progression. Best overall responses of CR and PR were confirmed by repeat assessments that were performed not less than 4 weeks after the criteria for response were first met.
CR may include participants with residual but non-progressive bone disease.

[4] = system: PSMA-positive metastatic castration-resistant prostate cancer; details: cited from earlier work
[5] = excretory mechanisms, kidneys (Kratochwil et al 2016); cited from earlier work
[6] = system: PSMA-positive metastatic castration-resistant prostate cancer (mCRPC); experiment: PSMAfore phase III: radiographic progression-free survival (rPFS) by blinded independent central review per PCWG3; format: in vivo, human
[7] = system: PSMA-positive metastatic castration-resistant prostate cancer; details: cited from earlier work; remark: listed apart in the source
[8] = system: PSMA-positive metastatic castration-resistant prostate cancer (mCRPC); experiment: PSMAfore phase III: radiographic progression-free survival (rPFS) by blinded independent central review per PCWG3; format: in vivo, human; remark: listed apart in the source
Method: Radiographic progression-free survival (rPFS) based on independent central review as per PCWG3 criteria is the primary endpoint and overall survival (OS) is the key secondary endpoint for the study. The statistical design of the study is such that, to be declared positive, the study would be required to reach statistical significance on the primary analysis of rPFS.
The primary analysis of rPFS and the first interim analysis of OS were performed using all patients randomized on or before the data cutoff date of 2 Oct. 2022 using a one-sided alpha level of 2.5%. One randomized and treated patient was excluded from Full Analysis Set due to informed consent not obtained per due process (INCL1A PD).

[9] = DCO 2 Oct 2022, full analysis set
[10] = Recist analysis set, measurable disease at baseline, BICR
[11] = DCO 21 Jun 2023, full analysis set
[12] = primary analysis DCO 2 Oct 2022, most recent central vendor data (results update)

O=C([O-])CN1CCN(CC(=O)[O-])CCN(CC(=O)NCC2CCC(C(=O)N[C@@H](Cc3ccc4ccccc4c3)C(=O)NCCCC[C@H](NC(=O)N[C@@H](CCC(=O)O)C(=O)O)C(=O)O)CC2)CCN(CC(=O)[O-])CC1.[177Lu+3] (stereo partly drawn) [[177Lu]Lu-PSMA-617, lutetium (177Lu) vipivotide tetraxetan]
treatment discontinuation due to adverse event ([1]; DCO 2 Oct 2022): 3.9%
Reason for discontinuation: Adverse event [1, 9]: 9 (3.9) n (%)
treatment discontinuation due to adverse event ([1]; DCO 21 Jun 2023): 5.6%
Grade 3/4 nephrotoxicity (mCRPC participants; literature): no reports of Grade 3/4 nephrotoxicity
rate of xerostomia in treated participants (mCRPC participants; prospective study, low grade): approximately 87%
participants with PSA decline >50% ([2]; 10 participants, 5.6 GBq/150 mCi): 50%
participants with PSA decline >50% ([2]; after 2 cycles of 6 GBq/160 mCi): 60%
Best overall response: Complete response (CR) [3, 10]: 15 (21.1) n (%)
Best overall response: Partial response (PR) [3, 10]: 20 (28.2) n (%)
Best overall response: Progressive disease (PD) [3, 10]: 14 (19.7) n (%)
Best overall response: Unknown (UNK) [3, 10]: 2 (2.8) n (%)
Disease Control Rate (DCR: CR + PR + SD) [3, 10]: 55 (77.5) n (%)
Overall Response Rate (ORR: CR + PR) [3, 10]: 35 (49.3) n (%)
rDCR compared to ARDT [3]: a higher rDCR compared to ARDT
rORR compared to ARDT [3]: at least three times higher rORR compared to ARDT
TEAE anemia ([4]; VISION): 31.8%
TEAE arthralgia ([4]; VISION): 22.3%
TEAE back pain ([4]; VISION): 23.4%
TEAE constipation ([4]; VISION): 20.2%
TEAE decreased appetite ([4]; VISION): 21.2%
TEAE diarrhea ([4]; VISION): 18.9%
TEAE dry mouth ([4]; VISION): 38.8%
TEAE fatigue ([4]; VISION): 43.1%
TEAE leukopenia ([4]; VISION): 12.5%
TEAE lymphopenia ([4]; VISION): 14.2%
TEAE nausea ([4]; VISION): 35.3%
TEAE thrombocytopenia ([4]; VISION): 17.2%
TEAE vomiting ([4]; VISION): 18.9%
patients reporting treatment-emergent adverse events (TEAEs) ([4]; as of 27 Jan 2021, 519 patients): 98.1%
incidence of adverse events of grade 3 or above ([4]; as of 27 Jan 2021): 52.7%
injected dose cleared within 48 hours [5]: approximately 50%
rPFS events: Death without radiographic progression [6, 11]: 10 (4.3) n(%)
rPFS events: Radiographic progression [6, 11]: 105 (44.9) n(%)
rPFS: Number of events [6, 11]: 115 (49.1%) n(%) and 115 (49.1) n(%)
risk reduction (rPFS) compared to ARDT arm ([6]; updated exploratory analysis DCO 21 Jun 2023): 57%
complete response ([7]; RECIST 1.1 measurable target lesions, 17 of 184 patients): 9.2%
partial response ([7]; RECIST 1.1 measurable target lesions, 77 patients): 41.8%
median imaging-based progression-free survival ([7]; plus standard care, vs 3.4 months standard care): 8.7 months
median overall survival ([7]; plus standard care, vs 11.3 months standard care): 15.3 months
hazard ratio for death ([7]; vs standard care, 95% CI 0.52 to 0.74): 0.62
hazard ratio for progression or death ([7]; vs standard care, 99.2% CI 0.29 to 0.57): 0.40
rPFS events: Death without radiographic progression [8, 9]: 6 (2.6) n(%)
rPFS events: Radiographic progression [8, 9]: 55 (23.6) n(%)
rPFS: Number of events [8, 9]: 61 (26.2%) n(%) and 61 (26.2) n(%)
risk reduction (rPFS) compared to ARDT arm [8, 9]: 58%
rPFS 75th percentile (95% CI) ([8]; DCO 2 Oct 2022, full analysis set, Kaplan-Meier): NE [11.96, NE]
estimated rPFS probability (95% CI) at 6 months [8, 12]: 69.0%
rPFS: Number of events [8, 12]: 60 (25.8%) n (%)
